Measurements: US11377496B2, “Targeting agent antibody conjugates and uses thereof” (The Scripps Research Institute, priority 2013, dated 2022)
Values joined by “and” are separate entries in the source; they are usually repeats but may differ in a detail not shown here. Equal values may be shown once. Read-outs that look alike come from different tables or passages of the source. Where a SMILES comes first, the peptide text is derived from it.

What was measured:
mPSMA = mPSMA (Mus musculus, UniProt O35409); conditions: cited from earlier work
mPSMA, sequence (O35409 whole entry): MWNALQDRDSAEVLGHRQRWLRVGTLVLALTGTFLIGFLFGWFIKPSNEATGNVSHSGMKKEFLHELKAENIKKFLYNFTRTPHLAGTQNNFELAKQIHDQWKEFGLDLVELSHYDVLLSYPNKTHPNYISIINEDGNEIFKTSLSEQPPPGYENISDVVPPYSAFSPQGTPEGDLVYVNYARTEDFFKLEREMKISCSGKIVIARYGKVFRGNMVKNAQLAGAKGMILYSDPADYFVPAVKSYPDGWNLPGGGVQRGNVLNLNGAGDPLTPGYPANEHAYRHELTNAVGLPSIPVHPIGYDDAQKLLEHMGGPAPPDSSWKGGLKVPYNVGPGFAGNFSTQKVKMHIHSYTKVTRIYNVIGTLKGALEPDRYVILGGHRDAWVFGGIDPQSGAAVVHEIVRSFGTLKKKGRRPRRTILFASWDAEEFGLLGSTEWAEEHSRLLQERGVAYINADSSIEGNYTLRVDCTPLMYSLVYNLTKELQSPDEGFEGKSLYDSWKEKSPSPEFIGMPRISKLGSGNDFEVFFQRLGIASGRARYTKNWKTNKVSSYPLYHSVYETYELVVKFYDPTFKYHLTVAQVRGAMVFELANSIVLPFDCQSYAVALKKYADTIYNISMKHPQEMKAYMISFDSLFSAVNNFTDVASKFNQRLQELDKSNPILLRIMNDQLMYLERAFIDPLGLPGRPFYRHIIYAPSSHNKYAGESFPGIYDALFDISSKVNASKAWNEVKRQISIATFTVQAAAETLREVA

cynoPSMA = conditions: previous reports; cited from earlier work
rhPSMA = target: T1, rhPSMA (Homo sapiens, UniProt Q04609); assay: PSMA inhibition assay; assay type: biochemical; conditions: for RFU: KM measurement; for Relative Fluorescence Units: glutamic acid readout, Amplex Red
T1 construct: purchased R&D research
T1 sequence (Q04609 whole entry): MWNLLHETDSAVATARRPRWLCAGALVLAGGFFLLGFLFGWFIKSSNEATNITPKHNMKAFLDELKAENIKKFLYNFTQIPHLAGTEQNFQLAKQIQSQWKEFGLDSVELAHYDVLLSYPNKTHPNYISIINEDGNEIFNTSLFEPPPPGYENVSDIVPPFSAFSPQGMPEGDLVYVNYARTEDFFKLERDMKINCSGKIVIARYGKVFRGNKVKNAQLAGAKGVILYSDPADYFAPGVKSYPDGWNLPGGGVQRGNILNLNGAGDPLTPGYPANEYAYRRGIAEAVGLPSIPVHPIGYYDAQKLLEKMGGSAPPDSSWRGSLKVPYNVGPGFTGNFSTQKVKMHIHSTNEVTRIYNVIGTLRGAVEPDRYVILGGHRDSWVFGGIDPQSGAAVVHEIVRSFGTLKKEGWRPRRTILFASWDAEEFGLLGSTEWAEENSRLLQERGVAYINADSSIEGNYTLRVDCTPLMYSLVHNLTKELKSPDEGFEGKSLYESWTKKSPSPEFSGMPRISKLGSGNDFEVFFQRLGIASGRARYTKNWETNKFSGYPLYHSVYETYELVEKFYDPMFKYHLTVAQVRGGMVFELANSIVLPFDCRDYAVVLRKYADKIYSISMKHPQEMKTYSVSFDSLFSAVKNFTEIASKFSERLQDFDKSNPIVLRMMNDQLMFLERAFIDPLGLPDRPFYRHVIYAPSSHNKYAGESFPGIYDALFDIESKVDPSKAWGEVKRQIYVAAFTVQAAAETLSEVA
Description: A 10 mM solution of N-acetyl-aspartyl-glutamate (NAAG) in 40 mM NaOH was diluted to 40 μM in Reaction Buffer (0.1 M Tris-HCl, pH=7.5), and the solution was added to a 384 well plate (10 μL per well). For KM measurements and KM negative controls (absence of PSMA), the NAAG solution was serially diluted 2-fold to obtain final NAAG concentrations ranging […]. […] To initiate reactions, 10 μL of rhPSMA ([…] in Reaction Buffer, R&D research) was added to each well. Reaction Buffer (10 μL) was added to the KM control series. The plate was incubated at 37° C. for 30 min, and then heated to 95° C. for 3 min. Levels of glutamic acid were quantified using Amplex® Red Glutamic Acid/Glutamate Oxidase Assay Kit (Invitrogen). Fluorescence intensities were measured using a SpectraMax Gemini EM microplate reader (GMI) with excitation and emission filters of 545 and 590 nm, respectively. Ki values were calculated using the Cheng-Prusoff equation from IC50 and KM values and these values were calculated using GraphPad Prism software. […] All reported data represent the mean of triplicate experiments.

C4-2 (PSMA+) cells = assay: In vitro cytotoxicity assays, C4-2 cells with PBMCs, 24 and 48 hours (Example 5); assay type: cell-based, human
Description: Peripheral blood mononuclear cells (PBMCs) were purified from fresh healthy human donor blood by conventional Ficoll-Hypaque gradient centrifugation. Purified PBMCs were washed and incubated in flasks in RPMI media with 10% FBS for 1 hours to remove any adherent cells. C4-2 (PSMA+) cells (target cells) were dissociated with 0.05% tryspin/EDTA solution (HyClone) and washed with RPMI with 10% FBS. 1×10^4 target cells were mixed with PBMCs at 1:10 ratio in […], and incubated with different concentrations of conjugated and unconjugated Fabs ([…]) for 24 and 48 hours at 37° C. Cytotoxicity of each well was measured for LDH (lactate dehydrogenase) levels in supernatant using Cytotox-96 non-radioactive cytotoxicity assay kit (Promega). Lysis solution ([…], provided in the same kit) was added to wells with only target cells to get the maximum killing, and spontaneous killing was measured from wells with effector and target cells treated with vehicle ([…]). The absorbance at 490 nm was recorded using SpectraMax 250 plate reader (Molecular Devices Corp.). Percent cytotoxicity was calculated by: % Cytotoxicity=(Absorbanceexpt−Absorbancespontaneous average)/(Absorbancemax killing average−Absorbancespontaneous average)×100

[1] = Pharmacokinetics in rats, intravenous, sandwich-ELISA; assay type: in vivo, Sprague Dawley rats; conditions: rat, 0.5 mg/kg
Description: We first evaluated the pharmacokinetics of the P-targeting agent antibody conjugate. Male Sprague Dawley rats (Charles River) were injected intravenously at time zero at 1 and 5 mg/kg for P-targeting agent antibody conjugate or 0.5 mg/kg for the unconjugated UCHT1 Fab. Blood was collected at regular intervals to 32 hours and processed to measure drug concentrations using a sandwich-ELISA. […] Also, the small size of P-targeting agent antibody conjugate may be advantageous for penetrating solid tumors.

C4-2 cells = assay: Prophylactic mouse xenograft model, C4-2 cells mixed with hPBMCs; assay type: in vivo, NOD/SCID mice; conditions: 2 mg/kg IV daily for 10 days from Day 4; monitored 6 weeks
Description: FIG. 12 depicts in vivo efficacy studies of P-targeting agent antibody conjugate. In the prophylactic model, 1×10^6 C4-2 cells were mixed with 2×10^6 PBMCs (1:2 ratio) in Matrigel and injected SC into the right shoulder of male NOD-SCID mice. P-targeting agent antibody conjugate, unconjugated Fab, or PBS (n=6) were administered at 2 mg/kg everyday for 10 days by IV starting on Day 4. Tumors were monitored by external caliper measurements for regular intervals for 6 weeks.
We next established a mouse xenograft model to evaluate the in vivo efficacy of P-targeting agent antibody conjugate. Immunodeficient NOD/SCID mice were subcutaneously injected with a mixture of 1×10^6 C4-2 cells and 2×10^6 hPBMCs in matrigel (BD Bioscience). After 4 days, treatment was initiated by injecting 2 mg/kg of drug via the tail vein and continued for 10 days (n=6). In a control group, mice were injected with an unconjugated mixture of P-Phthal (3) and UCHT1 wild-type Fab, and another group of mice was injected with vehicle alone (n=6). Tumor growth was monitored by external caliper measurement. […] After confirming the prophylactic efficacy of P-targeting agent antibody conjugate, we carried a xenograft model in which we delayed treatment until we observed the formation of a palpable tumor. […]

CD3 = CD3 (Macaca fascicularis, UniProt Q95LI5); assay: Cyno cross-reactivity of anti-CD3 antibody; assay type: binding, cynomolgus macaque
CD3, sequence (Q95LI5 22-198): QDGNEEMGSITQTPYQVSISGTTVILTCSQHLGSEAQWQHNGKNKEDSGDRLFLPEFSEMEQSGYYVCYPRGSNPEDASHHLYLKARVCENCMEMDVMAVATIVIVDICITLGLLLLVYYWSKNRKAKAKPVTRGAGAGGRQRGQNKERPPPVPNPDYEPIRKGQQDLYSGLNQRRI
CD3, sequence (Q95LI8 22-171 partner): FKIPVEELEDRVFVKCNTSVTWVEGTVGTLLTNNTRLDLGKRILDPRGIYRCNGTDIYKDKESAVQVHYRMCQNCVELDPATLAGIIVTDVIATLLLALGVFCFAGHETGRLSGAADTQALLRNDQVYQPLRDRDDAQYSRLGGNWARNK
CD3, sequence (Q95LI7 23-181 partner): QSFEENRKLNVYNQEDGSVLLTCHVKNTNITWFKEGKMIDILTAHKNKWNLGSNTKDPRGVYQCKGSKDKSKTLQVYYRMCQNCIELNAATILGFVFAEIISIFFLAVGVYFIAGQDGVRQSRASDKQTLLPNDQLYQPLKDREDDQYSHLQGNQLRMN

[2] = average of three trials, read-out: Average Ki
[3] = enzyme-based inhibition assay, read-out: average Ki

In the case of `O=C(O)CCC(NC(=O)NC(CCC(=O)O)C(=O)O)C(=O)O` (stereo not drawn) [DUPA, 2-[3-(1,3-dicarboxypropy)ureidol]pentanedioic acid], the “binding to mPSMA (in words)” value (mPSMA) is listed as “strongly binds” and the “inhibition of glutamate carboxy peptidase activity of cynoPSMA (in words)” value (cynoPSMA) is listed as “efficiently inhibited”.

Molecule `CC(=O)N[C@@H](CC(=O)O)C(=O)N[C@@H](CCC(=O)O)C(=O)O` [NAAG, N-acetyl-aspartyl-glutamate, reference compound] (Ac-Asp-Glu-OH) has an RFU (rhPSMA; NAAG 0.15625 μM) of 403, an RFU (rhPSMA; NAAG 0.3125 μM) of 400.6455 and an RFU (rhPSMA; NAAG 0.625 μM) of 422.2. For the same molecule, the RFU (rhPSMA; NAAG 1.25 μM) was 434.8145, the RFU (rhPSMA; NAAG 2.5 μM) was 447 and the RFU (rhPSMA; NAAG 5 μM) was 480.622. The RFU (rhPSMA; NAAG 10 μM) was 549.6, the RFU (rhPSMA; NAAG 20 μM) was 653.474 and the Km (rhPSMA; substrate NAAG) was 0.288 µM.

In the case of `NOCC(=O)NCCOCCOCCNc1cc(NCCOCCOCCNC(=O)CCCCCCCNC(=O)CCC(NC(=O)NC(CCC(=O)O)C(=O)O)C(=O)O)c([N+](=O)[O-])cc1[N+](=O)[O-]` (stereo not drawn) [P-DNP], the IC50 (rhPSMA; Trials 1-3) is reported as 7.28 nM and 4.46 nM and 4.58 nM, the Ki (rhPSMA; [2]) is reported as 0.0482 nM and the “Relative Fluorescence Units” value (rhPSMA; inhibitor 0.0000256 μM) is reported as 1650.519. For the same molecule, the “Relative Fluorescence Units” value (rhPSMA; inhibitor 0.000128 μM) was 1558, the “Relative Fluorescence Units” value (rhPSMA; inhibitor 0.00064 μM) was 1413.9875 and the “Relative Fluorescence Units” value (rhPSMA; inhibitor 0.0032 μM) was 1123.0625. The “Relative Fluorescence Units” value (rhPSMA; inhibitor 0.016 μM) was 896.8, the “Relative Fluorescence Units” value (rhPSMA; inhibitor 0.08 μM) was 704.2 and the “Relative Fluorescence Units” value (rhPSMA; inhibitor 0.4 μM) was 622.7. For the same molecule, the “Relative Fluorescence Units” value (rhPSMA; inhibitor 2 μM) was 586.843, the “Relative Fluorescence Units” value (rhPSMA; inhibitor 10 μM) was 581.8 and the “Relative Fluorescence Units” value (rhPSMA; inhibitor 50 μM) was 525.6755.

In the case of `NOCC(=O)NCCOCCOCCNC(=O)c1ccc(C(=O)NCCOCCOCCNC(=O)CCCCCCCNC(=O)CCC(NC(=O)NC(CCC(=O)O)C(=O)O)C(=O)O)cc1` (stereo not drawn) [P-Phthal], the IC50 (rhPSMA; Trials 1-3) is reported as 208 nM and 397 nM and 223 nM, the Ki (rhPSMA; [2]) is reported as 1.98 nM and the Ki (rhPSMA; [3]) is reported as 2 nM. The “Relative Fluorescence Units” value (rhPSMA; inhibitor 0.0000256 μM) was 1609, the “Relative Fluorescence Units” value (rhPSMA; inhibitor 0.000128 μM) was 1592.5445 and the “Relative Fluorescence Units” value (rhPSMA; inhibitor 0.00064 μM) was 1633.913. For the same molecule, the “Relative Fluorescence Units” value (rhPSMA; inhibitor 0.0032 μM) was 1542.606, the “Relative Fluorescence Units” value (rhPSMA; inhibitor 0.016 μM) was 1387.603 and the “Relative Fluorescence Units” value (rhPSMA; inhibitor 0.08 μM) was 1274. For the same molecule, the “Relative Fluorescence Units” value (rhPSMA; inhibitor 0.4 μM) was 1021, the “Relative Fluorescence Units” value (rhPSMA; inhibitor 2 μM) was 798.9 and the “Relative Fluorescence Units” value (rhPSMA; inhibitor 10 μM) was 688.1815. For the same molecule, the “Relative Fluorescence Units” value (rhPSMA; inhibitor 50 μM) was 581.035.

With `NOCC(=O)NCCOCCOCCOCCNC(=O)c1ccc(C(=O)NCCCCCCc2cn(CCCC[C@H](NC(=O)N[C@@H](CCC(=O)O)C(=O)O)C(=O)O)nn2)cc1` [P-TriA, (S)-2-(3-((S)-5-(4-(6-(4-(1-(aminooxy)-2-oxo-6,9,12-trioxa-3-azatetradecan-14-ylcarbamoyl)benzamido)hexyl)-1H-1,2,3-triazol-1-yl)-1-carboxypentyl)ureido)pentanedioic acid] the Ki (rhPSMA; Trials 1-3, Cheng-Prusoff equation from IC50 and KM, read-out: Ki) was 0.00613 nM and 0.0023 nM and 0.00591 nM, the Ki (rhPSMA; [2]) was 0.00478 nM and the enhanced affinity (rhPSMA; compared to P-Phthal) was “more than 400 fold”. For the same molecule, the Ki (rhPSMA; [3]) was 0.0048 nM, the “Relative Fluorescence Units” value (rhPSMA; inhibitor 0.0000256 μM) was 1619 and the “Relative Fluorescence Units” value (rhPSMA; inhibitor 0.000128 μM) was 1499.6145. The “Relative Fluorescence Units” value (rhPSMA; inhibitor 0.00064 μM) was 1259, the “Relative Fluorescence Units” value (rhPSMA; inhibitor 0.0032 μM) was 950.487 and the “Relative Fluorescence Units” value (rhPSMA; inhibitor 0.016 μM) was 817.1. For the same molecule, the “Relative Fluorescence Units” value (rhPSMA; inhibitor 0.08 μM) was 664.949, the “Relative Fluorescence Units” value (rhPSMA; inhibitor 0.4 μM) was 586.721 and the “Relative Fluorescence Units” value (rhPSMA; inhibitor 2 μM) was 562.9. The “Relative Fluorescence Units” value (rhPSMA; inhibitor 10 μM) was 599.969 and the “Relative Fluorescence Units” value (rhPSMA; inhibitor 50 μM) was 559.8.

For wt-UCHT1, the “% Cytotoxicity” value (C4-2 (PSMA+) cells; 24 h, 0.0512 pM) was −0.1753%, the “% Cytotoxicity” value (C4-2 (PSMA+) cells; 24 h, 0.256 pM) was −0.8764% and the “% Cytotoxicity” value (C4-2 (PSMA+) cells; 24 h, 1.28 pM) was −0.9115%. The “% Cytotoxicity” value (C4-2 (PSMA+) cells; 24 h, 6.4 pM) was −0.4733%, the “% Cytotoxicity” value (C4-2 (PSMA+) cells; 24 h, 32 pM) was −0.7537% and the “% Cytotoxicity” value (C4-2 (PSMA+) cells; 24 h, 160 pM) was −0.4032%. For the same molecule, the “% Cytotoxicity” value (C4-2 (PSMA+) cells; 24 h, 800 pM) was 1.192%, the “% Cytotoxicity” value (C4-2 (PSMA+) cells; 24 h, 4000 pM) was 1.858% and the “% Cytotoxicity” value (C4-2 (PSMA+) cells; 48 h, 0.01024 pM) was −0.609%. For the same molecule, the “% Cytotoxicity” value (C4-2 (PSMA+) cells; 48 h, 0.0512 pM) was −1.023%, the “% Cytotoxicity” value (C4-2 (PSMA+) cells; 48 h, 0.256 pM) was −0.5196% and the “% Cytotoxicity” value (C4-2 (PSMA+) cells; 48 h, 1.28 pM) was −0.0812%. For the same molecule, the “% Cytotoxicity” value (C4-2 (PSMA+) cells; 48 h, 6.4 pM) was −0.4872%, the “% Cytotoxicity” value (C4-2 (PSMA+) cells; 48 h, 32 pM) was −1.104% and the “% Cytotoxicity” value (C4-2 (PSMA+) cells; 48 h, 160 pM) was −0.9419%. The “% Cytotoxicity” value (C4-2 (PSMA+) cells; 48 h, 800 pM) was 4.872%, the circulating half-life [1] was about 1 h and the “tumor growth (in words)” value (C4-2 cells) was “developed rapid tumors”. The “cyno cross-reactivity (in words)” value (CD3) was “not sufficiently cyno cross-reactive”.
